{"source": "patent US10301306B2", "about": "“Substituted dihydro-1H-pyrrolo[3,2-c]pyridin-4(5H)-ones as RIPK3 inhibitors” (BRISTOL-MYERS SQUIBB COMPANY, priority 2014, dated 2019)", "data": [{"target": "RIPK3 (Homo sapiens (Human), UniProt Q9Y572)", "sequence (Q9Y572 whole entry, species assumed)": "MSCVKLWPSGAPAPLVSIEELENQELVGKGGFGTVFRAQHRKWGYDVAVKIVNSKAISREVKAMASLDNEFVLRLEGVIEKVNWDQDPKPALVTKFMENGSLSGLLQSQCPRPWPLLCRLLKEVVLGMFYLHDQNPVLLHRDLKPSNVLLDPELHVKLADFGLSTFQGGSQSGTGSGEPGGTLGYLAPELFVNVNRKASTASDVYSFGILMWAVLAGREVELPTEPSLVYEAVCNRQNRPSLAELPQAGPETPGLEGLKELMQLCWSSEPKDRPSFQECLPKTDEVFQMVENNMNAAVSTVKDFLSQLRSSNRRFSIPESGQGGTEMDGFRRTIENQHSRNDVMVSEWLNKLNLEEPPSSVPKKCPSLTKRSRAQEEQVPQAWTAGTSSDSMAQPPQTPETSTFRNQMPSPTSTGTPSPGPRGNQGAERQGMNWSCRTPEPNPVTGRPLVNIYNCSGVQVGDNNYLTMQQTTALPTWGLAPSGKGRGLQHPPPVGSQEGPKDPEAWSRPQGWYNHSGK", "experiment": "RIPK3 HTRF Kinase Assay", "type": "binding", "settings": "RIPK3 1 nM; HTRF probe 23 nM; 60 min at room temperature; read-out: IC50 for Inhibition of RIPK3", "units": {"IC50": "nM"}, "values": [{"molecule": "Cc1n[nH]cc1-c1c(-c2ccc(F)cc2)c2c(n1Cc1ccc(F)cc1C#N)CCNC2=O", "note": "[Example 1, 5-Fluoro-2-((3-(4-fluorophenyl)-2-(3-methyl-1H-pyrazol-4-yl)-4-oxo-4,5,6,7-tetrahydro-1H-pyrrolo[3,2-c]pyridin-1-yl)methyl)benzonitrile]", "IC50": "100 to 15000"}, {"molecule": "N#Cc1cccc(Cn2c3c(c(-c4ccc(F)cc4)c2-c2ccncc2)C(=O)NCC3)c1", "note": "[Example 2, 3-((3-(4-Fluorophenyl)-4-oxo-2-(pyridin-4-yl)-4,5,6,7-tetrahydro-1H-pyrrolo[3,2-c]pyridin-1-yl)methyl)benzonitrile]", "IC50": "< 30"}, {"molecule": "CC(=O)Nc1cc(-c2c(-c3ccc(F)cc3)c3c(n2CC2CCOCC2)CCNC3=O)ccn1", "note": "[Example 3, N-(4-(3-(4-Fluorophenyl)-4-oxo-1-((tetrahydro-2H-pyran-4-yl)methyl)-4,5,6,7-tetrahydro-1H-pyrrolo[3,2-c]pyridin-2-yl)pyridin-2-yl)acetamide]", "IC50": "100 to 15000"}, {"molecule": "CC(=O)Nc1cc(-c2c(-c3ccc(F)cc3)c3c(n2Cc2ccc(C)cc2)CCNC3=O)ccn1", "note": "[Example 4, N-(4-(3-(4-Fluorophenyl)-1-(4-methylbenzyl)-4-oxo-4,5,6,7-tetrahydro-1H-pyrrolo[3,2-c]pyridin-2-yl)pyridin-2-yl)acetamide]", "IC50": "< 30"}, {"molecule": "O=C1NCCc2c1c(-c1cccc(-c3ccccc3)c1)c(-c1ccncc1)n2CC1CCOCC1", "note": "[Example 5, 3-([1,1′-Biphenyl]-3-yl)-2-(pyridin-4-yl)-1-((tetrahydro-2H-pyran-4-yl)methyl)-6,7-dihydro-1H-pyrrolo[3,2-c]pyridin-4(5H)-one]", "IC50": "100 to 15000"}, {"molecule": "O=C1NCCc2c1c(-c1ccc(F)cc1)c(-c1ccnc(Cl)c1)n2Cc1ccc(C(F)(F)F)cc1F", "note": "[Example 6, 2-(2-Chloropyridin-4-yl)-1-(2-fluoro-4-(trifluoromethyl)benzyl)-3-(4-fluorophenyl)-6,7-dihydro-1H-pyrrolo[3,2-c]pyridin-4(5H)-one]", "IC50": "100 to 15000"}, {"molecule": "CC(C)C(=O)Nc1cc(-c2c(-c3ccc(F)cc3)c3c(n2Cc2ccc(C(F)(F)F)cc2F)CCNC3=O)ccn1", "note": "[Example 7, N-(4-(1-(2-Fluoro-4-(trifluoromethyl)benzyl)-3-(4-fluorophenyl)-4-oxo-4,5,6,7-tetrahydro-1H-pyrrolo[3,2-c]pyridin-2-yl)pyridin-2-yl)isobutyramide]", "IC50": "100 to 15000"}, {"molecule": "O=C1NCCc2c1c(-c1ccc(F)cc1)c(-c1ccnc(NC(=O)C3CC3)c1)n2Cc1ccc(C(F)(F)F)cc1F", "note": "[Example 8, N-(4-(1-(2-Fluoro-4-(trifluoromethyl)benzyl)-3-(4-fluorophenyl)-4-oxo-4,5,6,7-tetrahydro-1H-pyrrolo[3,2-c]pyridin-2-yl)pyridin-2-yl)cyclopropanecarboxamide]", "IC50": "< 30"}, {"molecule": "N#Cc1cc(F)ccc1Cn1c2c(c(-c3ccc(C(F)(F)F)cc3)c1-c1ccncc1)C(=O)NCC2", "note": "[Example 9, 5-Fluoro-2-((4-oxo-2-(pyridin-4-yl)-3-(4-(trifluoromethyl)phenyl)-4,5,6,7-tetrahydro-1H-pyrrolo[3,2-c]pyridin-1-yl)methyl)benzonitrile]", "IC50": "31 to 100"}, {"molecule": "CNc1cc(-c2c(-c3ccc(F)cc3)c3c(n2Cc2ccc(C(F)(F)F)cc2F)CCNC3=O)ccn1", "note": "[Example 10]", "IC50": "100 to 15000"}, {"molecule": "N#Cc1cc(F)ccc1Cn1c2c(c(-c3cccnc3)c1-c1ccnc(Cl)c1)C(=O)NCC2", "note": "[Example 11, 2-((2-(2-Chloropyridin-4-yl)-4-oxo-3-(pyridin-3-yl)-4,5,6,7-tetrahydro-1H-pyrrolo[3,2-c]pyridin-1-yl)methyl)-5-fluorobenzonitrile]", "IC50": "100 to 15000"}, {"molecule": "Nc1cc(-c2c(-c3ccc(F)cc3)c3c(n2Cc2ccc(C(F)(F)F)cc2F)CCNC3=O)ccn1", "note": "[Example 12, 2-(2-Aminopyridin-4-yl)-1-(2-fluoro-4-(trifluoromethyl)benzyl)-3-(4-fluorophenyl)-6,7-dihydro-1H-pyrrolo[3,2-c]pyridin-4(5H)-one]", "IC50": "100 to 15000"}, {"molecule": "Cc1noc(-c2ccc(Cn3c4c(c(-c5ccc(F)cc5)c3-c3ccncc3)C(=O)NCC4)cc2)n1", "note": "[Example 13, 3-(4-Fluorophenyl)-1-(4-(3-methyl-1,2,4-oxadiazol-5-yl)benzyl)-2-(pyridin-4-yl)-6,7-dihydro-1H-pyrrolo[3,2-c]pyridin-4(5H)-one]", "IC50": "< 30"}, {"molecule": "N#Cc1cc(F)ccc1Cn1c2c(c(-c3cccs3)c1-c1ccncc1)C(=O)NCC2", "note": "[Example 14, 5-Fluoro-2-((4-oxo-2-(pyridin-4-yl)-3-(thiophen-2-yl)-4,5,6,7-tetrahydro-1H-pyrrolo[3,2-c]pyridin-1-yl)methyl)benzonitrile]", "IC50": "< 30"}, {"molecule": "COc1cnccc1-c1c(-c2ccc(F)cc2)c2c(n1Cc1ccc(F)cc1C#N)CCNC2=O", "note": "[Example 15]", "IC50": "31 to 100"}, {"molecule": "N#Cc1cc(F)ccc1Cn1c2c(c(-c3ccc(F)cc3)c1-c1ccnc(C(F)(F)F)c1)C(=O)NCC2", "note": "[Example 16]", "IC50": "100 to 15000"}, {"molecule": "N#Cc1cc(F)ccc1Cn1c2c(c(-c3ccc(F)cc3)c1-c1cncnc1)C(=O)NCC2", "note": "[Example 17]", "IC50": "100 to 15000"}, {"molecule": "N#Cc1cc(F)ccc1Cn1c2c(c(-c3ccc(F)cc3)c1-c1ccc3[nH]ccc3c1)C(=O)NCC2", "note": "[Example 19]", "IC50": "100 to 15000"}, {"molecule": "Cc1cc(-c2c(-c3ccc(F)cc3)c3c(n2Cc2ccc(F)cc2C#N)CCNC3=O)ccn1", "note": "[Example 20]", "IC50": "31 to 100"}, {"molecule": "CC(=O)Nc1cccc(-c2c(-c3ccc(F)cc3)c3c(n2Cc2ccc(F)cc2C#N)CCNC3=O)c1", "note": "[Example 21]", "IC50": "100 to 15000"}, {"molecule": "N#Cc1cc(F)ccc1Cn1c2c(c(-c3ccc(F)cc3)c1-c1ccnc(Cl)c1)C(=O)NCC2", "note": "[Example 22]", "IC50": "100 to 15000"}, {"molecule": "N#Cc1cc(F)ccc1Cn1c2c(c(-c3ccc(F)cc3)c1-c1ccoc1)C(=O)NCC2", "note": "[Example 23]", "IC50": "100 to 15000"}, {"molecule": "Cn1cc(-c2c(-c3ccc(F)cc3)c3c(n2Cc2ccc(F)cc2C#N)CCNC3=O)cn1", "note": "[Example 24]", "IC50": "100 to 15000"}, {"molecule": "N#Cc1cc(F)ccc1Cn1c2c(c(-c3ccc(F)cc3)c1-c1ccsc1)C(=O)NCC2", "note": "[Example 25]", "IC50": "100 to 15000"}, {"molecule": "COc1ncc(-c2c(-c3ccc(F)cc3)c3c(n2Cc2ccc(F)cc2C#N)CCNC3=O)cn1", "note": "[Example 26]", "IC50": "100 to 15000"}, {"molecule": "N#Cc1cc(F)ccc1Cn1c2c(c(-c3ccc(F)cc3)c1-c1ccncc1F)C(=O)NCC2", "note": "[Example 27]", "IC50": "< 30"}, {"molecule": "N#Cc1ccc(Cn2c3c(c(-c4ccc(F)cc4)c2-c2ccncc2)C(=O)NCC3)cc1", "note": "[Example 28]", "IC50": "31 to 100"}, {"molecule": "O=C1NCCc2c1c(-c1ccc(F)cc1)c(-c1ccncc1)n2CC1CCNCC1", "note": "[Example 30]", "IC50": "100 to 15000"}, {"molecule": "O=C1NCCc2c1c(-c1ccc(F)cc1)c(-c1ccncc1)n2CC1CCOCC1", "note": "[Example 31]", "IC50": "100 to 15000"}, {"molecule": "O=C1NCCc2c1c(-c1ccc(F)cc1)c(-c1ccncc1)n2Cc1ccc(C(F)(F)F)cc1", "note": "[Example 33]", "IC50": "31 to 100"}, {"molecule": "N#Cc1cc(F)ccc1Cn1c2c(c(-c3ccc(F)cc3)c1-c1ccncc1)C(=O)NCC2", "note": "[Example 34]", "IC50": "< 30"}, {"molecule": "N#Cc1ccc(Cn2c3c(c(-c4ccc(F)cc4)c2-c2ccncc2)C(=O)NCC3)cc1F", "note": "[Example 35]", "IC50": "31 to 100"}, {"molecule": "CC(c1ccccc1)n1c2c(c(-c3ccc(F)cc3)c1-c1ccncc1)C(=O)NCC2", "note": "(stereo not drawn) [Example 36]", "IC50": "100 to 15000"}, {"molecule": "COc1ccc(CCn2c3c(c(-c4ccc(F)cc4)c2-c2ccncc2)C(=O)NCC3)cc1", "note": "[Example 37]", "IC50": "100 to 15000"}, {"molecule": "COc1ccc(Cn2c3c(c(-c4ccc(F)cc4)c2-c2ccncc2)C(=O)NCC3)cc1", "note": "[Example 38]", "IC50": "< 30"}, {"molecule": "O=C1NCCc2c1c(-c1ccc(F)cc1)c(-c1ccncc1)n2Cc1ccc(OC(F)(F)F)c(Cl)c1", "note": "[Example 40]", "IC50": "100 to 15000"}, {"molecule": "O=C1NCCc2c1c(-c1ccc(F)cc1)c(-c1ccncc1)n2Cc1cc(F)cc(C(F)(F)F)c1", "note": "[Example 41]", "IC50": "< 30"}, {"molecule": "CS(=O)(=O)c1ccc(Cn2c3c(c(-c4ccc(F)cc4)c2-c2ccncc2)C(=O)NCC3)cc1", "note": "[Example 42]", "IC50": "100 to 15000"}, {"molecule": "O=C1NCCc2c1c(-c1ccc(F)cc1)c(-c1ccncc1)n2Cc1ccc(C(F)(F)F)cc1F", "note": "[Example 43]", "IC50": "< 30"}, {"molecule": "O=C1NCCc2c1c(-c1ccc(F)cc1)c(-c1ccncc1)n2Cc1ccc(F)cc1", "note": "[Example 44]", "IC50": "< 30"}, {"molecule": "Cc1cc(Cn2c3c(c(-c4ccc(F)cc4)c2-c2ccncc2)C(=O)NCC3)ccc1F", "note": "[Example 46]", "IC50": "< 30"}, {"molecule": "O=C1NCCc2c1c(-c1ccc(F)cc1)c(-c1ccncc1)n2Cc1nnc(C2CC2)s1", "note": "[Example 47]", "IC50": "100 to 15000"}, {"molecule": "Cc1nc(-c2ccc(Cn3c4c(c(-c5ccc(F)cc5)c3-c3ccncc3)C(=O)NCC4)c(F)c2)no1", "note": "[Example 48]", "IC50": "< 30"}, {"molecule": "N#CCn1c2c(c(-c3ccc(F)cc3)c1-c1ccncc1)C(=O)NCC2", "note": "[Example 49]", "IC50": "100 to 15000"}, {"molecule": "Cc1noc(C)c1Cn1c2c(c(-c3ccc(F)cc3)c1-c1ccncc1)C(=O)NCC2", "note": "[Example 50]", "IC50": "100 to 15000"}, {"molecule": "N#Cc1ccc(Cn2c3c(c(-c4ccc(F)cc4)c2-c2ccncc2)C(=O)NCC3)c(F)c1", "note": "[Example 51]", "IC50": "< 30"}, {"molecule": "O=C1NCCc2c1c(-c1ccc(F)cc1)c(-c1ccncc1)n2Cc1ccc(C2CC2)cc1", "note": "[Example 52]", "IC50": "31 to 100"}, {"molecule": "O=C1NCCc2c1c(-c1ccc(F)cc1)c(-c1ccncc1)n2Cc1ccc(C(F)(F)F)cc1C(F)(F)F", "note": "[Example 53]", "IC50": "< 30"}, {"molecule": "N#Cc1ccc(Cn2c3c(c(-c4ccc(F)cc4)c2-c2ccncc2)C(=O)NCC3)nc1", "note": "[Example 54]", "IC50": "31 to 100"}, {"molecule": "O=C1NCCc2c1c(-c1ccc(F)cc1)c(-c1ccncc1)n2Cc1ccc(F)cc1C(F)(F)F", "note": "[Example 55]", "IC50": "< 30"}, {"molecule": "O=C1NCCc2c1c(-c1ccc(F)cc1)c(-c1ccncc1)n2Cc1nnc(C2CC2)o1", "note": "[Example 56]", "IC50": "100 to 15000"}, {"molecule": "CC(C)Cn1c2c(c(-c3ccc(F)cc3)c1-c1ccncc1)C(=O)NCC2", "note": "[Example 58]", "IC50": "31 to 100"}, {"molecule": "N#CCCCn1c2c(c(-c3ccc(F)cc3)c1-c1ccncc1)C(=O)NCC2", "note": "[Example 59]", "IC50": "100 to 15000"}, {"molecule": "Cc1nc(Cn2c3c(c(-c4ccc(F)cc4)c2-c2ccncc2)C(=O)NCC3)cs1", "note": "[Example 60]", "IC50": "31 to 100"}]}, {"target": "RIPK3 (Homo sapiens (Human), UniProt Q9Y572)", "experiment": "RIPK3 HTRF Kinase Assay", "type": "binding", "settings": "read-out: IC50 for Inhibition of RIPK3", "units": {"IC50": "nM"}, "values": [{"molecule": "N#Cc1cc(F)ccc1Cn1c2c(c(-c3ccc(F)cc3)c1-c1ccnc(F)c1)C(=O)NCC2", "note": "[Example 18]", "IC50": "100 to 15000"}, {"molecule": "O=C1NCCc2c1c(-c1ccc(F)cc1)c(-c1ccncc1)n2CC1CCCNC1", "note": "(stereo not drawn) [Example 32]", "IC50": "100 to 15000"}, {"molecule": "Cc1ccc(Cn2c3c(c(-c4ccc(F)cc4)c2-c2ccncc2)C(=O)NCC3)cc1", "note": "[Example 45]", "IC50": "31 to 100"}]}]}
